Columns and labels:
CCK receptor (brain) = molecular target: T1, CCK receptor (brain) (Cavia porcellus, UniProt H0VZC5); assay: CCK Receptor Binding (Brain), inhibition of 125I-CCK-8 binding; design: species or system guinea pig (male Hartley); conditions: guinea pig cortex membranes; 50 pM 125I-CCK-8; pH 6.5, 25° C., 2 hours
T1 construct: the cortex was removed and homogenized in 25 mL ice-cold 0.32M sucrose; from tissue; host or cells: cortex of male Hartley guinea pigs, P2 membrane pellet
Procedure: CCK-8 sulphated was radiolabelled and the binding was performed according to the description for the pancreas method with minor modifications.
Male Hartley guinea pigs (300-500 g) were sacrificed by decapitation and the cortex was removed and homogenized in 25 mL ice-cold 0.32M sucrose. The homogenates were centrifuged at 1000 g for 10 minutes and the resulting supernatant was recentrifuged at 20,000 g for 20 minutes. The P2 pellet was resuspended in binding assay buffer (20 mM HEPES, 5 mM MgCl2, 0.25 mg/ml bacitracin, 1 mM EGTA pH 6.5 at 25° C.), using a Teflon (trademark) homogenizer (5 strokes at 500 rpm) to give a final concentration of 10 mg original wet weight/1.2 ml buffer. For the binding assay, 50 μl of buffer (for total binding) or unlabelled CCK-8 sulphated to give a final concentration of 1 μM (for nonspecific binding) or the compounds of Formula I (for determination of inhibition of ^125 I-CCK-8 binding) and 50 μl of 500 pM ^125 I-CCK-8 (i.e. final concentration of 50 pM) were added to 400 μl of the membrane suspensions in microfuge tubes. All assays were run in duplicate. The reaction mixtures were incubated at 25° C. for 2 hours and then the reaction was terminated by rapid filtration (Brandell 24 well cell harvester) on Whatman GF/C filters with 3×5 ml washes of cold 100 mM NaCl. The radioactivity on the filters was counted with a LKB gamma counter. […]

CCK receptor (pancreas) = molecular target: T2, CCK receptor (pancreas) (Rattus norvegicus, UniProt P30551); assay: CCK Receptor Binding (Pancreas), inhibition of 125I-CCK-8 binding; design: species or system rat (male Sprague-Dawley); conditions: rat pancreas membranes; 50 pM 125I-CCK-8; pH 6.5, 25° C., 2 hours
T2 construct: The whole pancreas was dissected free of fat tissue and was homogenized; from tissue; host or cells: whole pancreas of male Sprague-Dawley rats, membrane homogenate
T2 sequence (P30551 1-444): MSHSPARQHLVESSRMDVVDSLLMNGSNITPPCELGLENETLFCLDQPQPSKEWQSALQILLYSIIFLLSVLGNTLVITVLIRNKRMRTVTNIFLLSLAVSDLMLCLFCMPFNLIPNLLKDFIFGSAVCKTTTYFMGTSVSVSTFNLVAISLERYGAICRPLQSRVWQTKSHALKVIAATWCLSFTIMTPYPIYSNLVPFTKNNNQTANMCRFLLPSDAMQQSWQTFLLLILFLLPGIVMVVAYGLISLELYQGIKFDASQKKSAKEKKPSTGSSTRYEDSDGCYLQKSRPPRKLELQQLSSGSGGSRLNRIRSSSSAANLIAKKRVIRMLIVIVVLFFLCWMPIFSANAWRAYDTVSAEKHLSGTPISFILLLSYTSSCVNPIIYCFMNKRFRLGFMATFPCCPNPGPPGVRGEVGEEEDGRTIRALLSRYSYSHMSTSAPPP
Procedure: CCK-8 sulphated was radiolabelled with ^125 I-Bolton Hunter reagent (2000 Ci/mmole). Receptor binding was performed according to Chang and Lotti (Proc. Natl. Acad. Sci. 83, 4923-4926, 1986) with minor modifications.
Male Sprague-Dawley rats (150-200 g) were sacrificed by decapitation. The whole pancreas was dissected free of fat tissue and was homogenized in 25 volumes of ice-cold 10 mM N-2-hydroxyethyl-piperazine-N'-2-ethane sulphonic acid (HEPES) buffer with 0.1% soya bean trypsin inhibitor (pH 7.4 at 25° C.) with a Kinematica Polytron. The homogenates were centrifuged at 47,800 g for 10 min. Pellets were resuspended in 10 volumes of binding assay buffer (20mM (HEPES)), 1 mM ethylene glycol-bis-(β-aminoethylether-N,N'-tetraacetic acid) (EGTA), 5 mM MgCl2, 150 mM NaCl, bacitracin 0.25 mg/ml, soya bean trypsin inhibitor 0.1 mg/ml, and bovine serum albumin 2 mg/ml pH 6.5 at 25° C.) using a Teflon (trademark) homogenizer, 15 strokes at 500 rpm. The homogenate was further diluted in binding assay buffer to give a final concentration of 0.5 mg original wet weight/1 ml buffer. […] The radioactivity on the filters was counted with a LKB gamma counter. […]

T1 sequence (H0VZC5 entry or part of it): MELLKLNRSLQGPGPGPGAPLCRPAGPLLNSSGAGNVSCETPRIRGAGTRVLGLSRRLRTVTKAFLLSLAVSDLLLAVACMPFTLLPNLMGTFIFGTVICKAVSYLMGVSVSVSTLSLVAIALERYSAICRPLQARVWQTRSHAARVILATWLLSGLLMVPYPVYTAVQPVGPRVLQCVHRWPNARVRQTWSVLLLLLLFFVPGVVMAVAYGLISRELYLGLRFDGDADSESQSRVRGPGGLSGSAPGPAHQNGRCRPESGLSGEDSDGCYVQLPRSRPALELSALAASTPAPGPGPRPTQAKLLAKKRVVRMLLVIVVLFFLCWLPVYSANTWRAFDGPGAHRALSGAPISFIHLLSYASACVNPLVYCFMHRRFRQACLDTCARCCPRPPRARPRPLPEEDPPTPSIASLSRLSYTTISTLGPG

SMILES: CC(C)CN1C(=O)C(NC(=O)Nc2cccc(-c3nn[nH]n3)c2)N=C(c2cc[nH]c(=O)c2)c2ccccc21 (racemic) [Example 2, N-[3(R,S)-2,3-Dihydro-1-(2-methylpropyl)-2-oxo-5-(2-oxo-1,2-dihydropyridin-4-yl)-1H-1,4-benzodiazepin-3-yl]-N'-[3-(tetrazol-5-yl)phenyl]urea]
- IC50 (CCK receptor (brain)): 23 nM
- IC50 (CCK receptor (pancreas)): 3380 nM

SMILES: CC(C)CN1C(=O)C(NC(=O)Nc2cccc(-c3nn[nH]n3)c2)N=C(c2ccc(=O)[nH]c2)c2ccccc21 (racemic) [Example 1, N-[3(R,S)-2,3-Dihydro-1-(2-methylpropyl)-2-oxo-5-(6-oxo-1,6-dihydropyridin-3-yl)-1H-1,4-benzodiazepin-3-yl]-N'-[3-(tetrazol-5-yl)phenyl]urea]
- IC50 (CCK receptor (brain)): 19.2 nM
- IC50 (CCK receptor (pancreas)): 2680 nM
